Our source for the Cytokine values is patent US20240277829A1, “HIV-1 VACCINATION AND SAMT-247 MICROBICIDE TO PREVENT HIV-1 INFECTION” (priority 2021, published 2024).

The test system of the experiment is NKG2A^+ cells. In words: NKG2A^+ cells, blood and mucosa, PMA (Table 1 summary). In kind it is cell-based. To be noted: * Zinc dependence. As to the method: Intracellular cytokines of Human blood NK cells using SAMT-247 and PMA stimulation with or without zinc chelator. The levels of NKG2A^+ NK cells were measured in blood of healthy humans. Human PBMCs were thawed and cultured in R10 in the presence or absence of SAMT-247 and/or PMA for 12 hours. Cells were incubated with or without Zinc chelator TPEN (cat. #P4413-100 MG, 5 μM) for 12 h. Subsequently, PBMCs were surface stained with the following: BUV737 anti-CD3 (SP34-2; cat. #741872, 5 μl), Alexa700 anti-CD20 (2H7; cat. #560631, 5 μl), BV786 anti-CD45 (HI30; cat. #563716, 5 μl) from BD Biosciences; APC-H7 anti-CD11b (ICRF44; cat. #47-0118-42, 5 μl) from eBioscience and PE-Cy7 anti-NKG2A (Z199; cat. #B10246, 5 μl) from Beckman coulter for 30 minutes at room temperature. This was followed by permeabilization with FOX3-transcription buffer set (cat. #00-5523-00) from eBioscience according to the manufacture's recommendation and subsequently intracellular staining with the following: BV750 anti-TNF-α (MAB11; cat. #566359, 5 μl), BUV396 anti-IFN-γ (B27; cat. #563563, 5 μl), BV510 anti-GranB (GB11; cat. #563388, 5 μl) from BD Biosciences; and FITC anti-Perforin (pf-344; cat. #3465-7, 5 μl) from MABTECH for 30 minutes at room temperature. Flow cytometry acquisitions were performed on a FACSymphony A5 and examined using FACSDIVA™ software (BD Biosciences).
Frequencies and cytokine levels of macaque rectal mucosal NK cells and T cells following SAMT-247 and PMA stimulation. NK/ILC and T cell frequencies and cytokine levels were measured in macaque rectal mucosa. Freshly collected rectal biopsies were processed to single cells and cultured in R10 in the presence/or absence of SAMT-247 and/or PMA for 12 hours. […]

Some results are limits rather than exact numbers.

Turning to `CC(=O)Sc1ccccc1C(=O)NCCC(N)=O` [SAMT-247], the Cytokine result was “<IFN-γ *” (IFN-γ); “<TNF-α *” (TNF-α); “>Granzyme/Perforin” (granzyme and perforin).
